How the values were obtained:
Type in all cases: cell-based
[1] = target: T1, human TLR7 (Homo sapiens, UniProt Q9NYK1); experiment: TLR7 inhibition reporter assay (HEK-Blue SEAP); conditions: HEK-Blue cells overexpressing human TLR7, stimulated with gardiquimod 7.5 μM, 22 hour incubation
T1 construct: host or cells: HEK-Blue cells
T1 sequence (Q9NYK1 27-1049): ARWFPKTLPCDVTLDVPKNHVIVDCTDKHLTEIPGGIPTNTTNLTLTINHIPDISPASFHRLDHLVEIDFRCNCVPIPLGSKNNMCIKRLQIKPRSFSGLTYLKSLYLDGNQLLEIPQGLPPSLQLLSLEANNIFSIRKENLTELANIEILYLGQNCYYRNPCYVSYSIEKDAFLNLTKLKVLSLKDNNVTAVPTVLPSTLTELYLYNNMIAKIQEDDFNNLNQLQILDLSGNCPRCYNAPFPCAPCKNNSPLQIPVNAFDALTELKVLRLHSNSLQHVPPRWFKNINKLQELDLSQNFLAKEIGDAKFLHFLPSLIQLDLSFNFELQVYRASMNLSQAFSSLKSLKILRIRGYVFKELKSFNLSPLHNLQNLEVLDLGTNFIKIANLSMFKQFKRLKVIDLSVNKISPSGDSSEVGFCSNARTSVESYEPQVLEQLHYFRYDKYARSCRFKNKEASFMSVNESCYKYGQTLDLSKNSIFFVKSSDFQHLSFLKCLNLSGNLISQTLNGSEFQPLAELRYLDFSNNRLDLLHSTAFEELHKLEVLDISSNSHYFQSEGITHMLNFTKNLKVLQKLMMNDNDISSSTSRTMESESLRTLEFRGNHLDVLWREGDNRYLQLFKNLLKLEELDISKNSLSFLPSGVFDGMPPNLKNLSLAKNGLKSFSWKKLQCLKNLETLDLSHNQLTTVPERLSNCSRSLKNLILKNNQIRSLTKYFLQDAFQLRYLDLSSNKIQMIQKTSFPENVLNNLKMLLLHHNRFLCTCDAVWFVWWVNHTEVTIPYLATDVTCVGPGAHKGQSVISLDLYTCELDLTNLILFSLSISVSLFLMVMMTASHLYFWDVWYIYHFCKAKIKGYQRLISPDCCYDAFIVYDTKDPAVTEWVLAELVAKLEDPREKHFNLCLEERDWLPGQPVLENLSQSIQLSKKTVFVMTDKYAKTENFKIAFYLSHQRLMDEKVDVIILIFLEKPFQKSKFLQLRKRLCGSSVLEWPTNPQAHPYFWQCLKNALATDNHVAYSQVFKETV
Summary of the method: (§1)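 Test compounds, final 0.05 nM–50 μM, pre-treat HEK-Blue human TLR7, TLR8 or TLR9 reporter cells before agonist addition (TLR8 R848 15.9 μM; TLR7 gardiquimod 7.5 μM; TLR9 ODN2006 5 nM). Incubation runs 22 h, 37 °C. SEAP detection gives percent inhibition against DMSO and reference-inhibitor controls.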

[2] = target: T2, human TLR8 (Homo sapiens, UniProt Q9NR97); experiment: TLR8 inhibition reporter assay (HEK-Blue SEAP); conditions: HEK-Blue cells overexpressing human TLR8, stimulated with R848 15.9 μM, 22 hour incubation
T2 construct: host or cells: HEK-Blue cells
T2 sequence (Q9NR97 27-1041): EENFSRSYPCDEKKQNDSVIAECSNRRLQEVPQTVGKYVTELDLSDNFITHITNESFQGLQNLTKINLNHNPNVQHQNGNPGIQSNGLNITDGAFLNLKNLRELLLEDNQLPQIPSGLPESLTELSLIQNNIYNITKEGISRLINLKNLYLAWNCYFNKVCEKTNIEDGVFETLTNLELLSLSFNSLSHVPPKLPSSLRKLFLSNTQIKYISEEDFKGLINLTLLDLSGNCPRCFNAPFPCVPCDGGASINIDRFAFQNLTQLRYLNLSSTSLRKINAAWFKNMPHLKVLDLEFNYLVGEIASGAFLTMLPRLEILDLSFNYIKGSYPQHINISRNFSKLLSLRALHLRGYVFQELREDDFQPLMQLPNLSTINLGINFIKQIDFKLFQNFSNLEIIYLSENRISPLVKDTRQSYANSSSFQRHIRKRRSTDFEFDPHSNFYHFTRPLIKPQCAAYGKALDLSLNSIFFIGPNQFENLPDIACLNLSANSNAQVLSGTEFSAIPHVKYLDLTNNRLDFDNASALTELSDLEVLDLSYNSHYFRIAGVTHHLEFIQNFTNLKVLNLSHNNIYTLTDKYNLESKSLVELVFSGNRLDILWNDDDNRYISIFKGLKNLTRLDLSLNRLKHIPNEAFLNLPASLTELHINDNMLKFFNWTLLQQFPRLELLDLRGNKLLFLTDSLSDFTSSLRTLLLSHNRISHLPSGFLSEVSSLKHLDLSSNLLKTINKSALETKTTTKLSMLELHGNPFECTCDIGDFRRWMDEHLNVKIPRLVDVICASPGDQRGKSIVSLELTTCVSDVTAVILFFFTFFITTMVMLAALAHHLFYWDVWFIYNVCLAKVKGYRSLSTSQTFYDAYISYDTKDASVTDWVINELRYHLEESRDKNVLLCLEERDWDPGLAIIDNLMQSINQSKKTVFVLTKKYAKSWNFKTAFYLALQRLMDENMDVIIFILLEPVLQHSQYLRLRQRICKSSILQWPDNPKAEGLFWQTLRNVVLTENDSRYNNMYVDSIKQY
Summary of the method: as §1

[3] = target: T3, human TLR9 (Homo sapiens, UniProt Q9NR96); experiment: TLR9 inhibition reporter assay (HEK-Blue SEAP); conditions: HEK-Blue cells overexpressing human TLR9, stimulated with ODN2006 5 nM, 22 hour incubation
T3 construct: host or cells: HEK-Blue cells
T3 sequence (Q9NR96 26-1032): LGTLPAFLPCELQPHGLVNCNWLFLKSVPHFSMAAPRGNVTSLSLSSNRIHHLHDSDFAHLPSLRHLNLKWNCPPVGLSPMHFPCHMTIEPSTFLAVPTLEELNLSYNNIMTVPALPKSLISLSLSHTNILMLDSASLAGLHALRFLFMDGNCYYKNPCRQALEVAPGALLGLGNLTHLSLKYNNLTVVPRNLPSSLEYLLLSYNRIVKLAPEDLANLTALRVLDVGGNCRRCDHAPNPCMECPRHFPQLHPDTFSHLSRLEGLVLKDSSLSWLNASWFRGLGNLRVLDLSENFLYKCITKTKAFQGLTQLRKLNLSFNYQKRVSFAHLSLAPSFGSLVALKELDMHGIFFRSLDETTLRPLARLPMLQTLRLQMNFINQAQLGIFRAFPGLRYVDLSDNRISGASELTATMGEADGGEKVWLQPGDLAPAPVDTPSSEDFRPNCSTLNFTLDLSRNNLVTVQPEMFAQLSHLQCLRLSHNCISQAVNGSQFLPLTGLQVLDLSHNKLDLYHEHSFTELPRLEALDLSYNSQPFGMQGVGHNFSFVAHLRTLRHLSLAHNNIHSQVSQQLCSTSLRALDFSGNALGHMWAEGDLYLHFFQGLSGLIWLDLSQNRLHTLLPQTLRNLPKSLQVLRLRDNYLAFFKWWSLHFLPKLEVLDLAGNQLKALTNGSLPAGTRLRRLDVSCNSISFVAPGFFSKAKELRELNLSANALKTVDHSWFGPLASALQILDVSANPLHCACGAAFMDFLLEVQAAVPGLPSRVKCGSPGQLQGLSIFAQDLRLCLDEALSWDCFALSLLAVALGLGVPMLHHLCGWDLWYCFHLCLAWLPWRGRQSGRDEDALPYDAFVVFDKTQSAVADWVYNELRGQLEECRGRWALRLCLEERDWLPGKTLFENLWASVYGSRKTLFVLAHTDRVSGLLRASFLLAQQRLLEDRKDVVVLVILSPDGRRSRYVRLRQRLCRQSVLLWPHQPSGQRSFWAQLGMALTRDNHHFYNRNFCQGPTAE
Summary of the method: as §1

IC50 [1]	IC50 [2]	IC50 [3]	Structure (SMILES)
0.8 nM	10.6 nM	2270 nM	Cc1cc(-c2[nH]c3ccc(O[C@H]4CCCNC4)cc3c2C(C)C)cn2ncnc12 [Example 9, (S)-6-(3-isopropyl-5-(piperidin-3-yloxy)-1H-indol-2-yl)-8-methyl-[1,2,4]triazolo[1,5-a]pyridine]
2.8 nM	2.1 nM	1920 nM	Cc1cc(-c2[nH]c3ccc(OC4CCNCC4)cc3c2C(C)C)cn(C)c1=O [Example 11, 5-(3-isopropyl-5-(piperidin-4-yloxy)-1H-indol-2-yl)-1,3-dimethylpyridin-2(1H)-one]
15.9 nM	10.8 nM	5250 nM	Cc1cc(-c2[nH]c3ccc(O[C@H]4CCCN(C5CCOCC5)C4)cc3c2C(C)C)cn(C)c1=O [Example 40, (S)-5-(3-isopropyl-5-((1-(tetrahydro-2H-pyran-4-yl)piperidin-3-yl)oxy)-1H-indol-2-yl)-1,3-dimethylpyridin-2(1H)-one]
142 nM	51.4 nM	172 nM	Cc1cc(-c2[nH]c3ccc(OCC(=O)N(C)C4CCNCC4)cc3c2C(C)C)ccn1 [Example 148, 2-((3-isopropyl-2-(2-methylpyridin-4-yl)-1H-indol-5-yl)oxy)-N-methyl-N-(piperidin-4-yl) acetamide]
275 nM	128 nM	7570 nM	COc1ccc(-c2[nH]c3ccc(OCC4CCN(Cc5ccccc5)CC4)cc3c2C(C)C)cc1OC [Example 160, 5-((1-benzylpiperidin-4-yl)methoxy)-2-(3,4-dimethoxyphenyl)-3-isopropyl-1H-indole]
3.1 nM	25.2 nM	4870 nM	Cc1cc(-c2[nH]c3ccc(O[C@H]4CCCN(C(=O)CN(C)C)C4)cc3c2C(C)C)cn2ncnc12 [Example 99, (S)-2-(dimethylamino)-1-(3-((3-isopropyl-2-(8-methyl-[1,2,4]triazolo[1,5-a]pyridin-6-yl)-1H-indol-5-yl)oxy)piperidin-1-yl)ethan-1-one]
98 nM	11.6 nM	359 nM	COc1ccc(-c2[nH]c3ccc(OCC(=O)N[C@H]4CCNC4)cc3c2C(C)C)cc1OC [Example 134, (S)-2-((2-(3,4-dimethoxyphenyl)-3-isopropyl-1H-indol-5-yl)oxy)-N-(pyrrolidin-3-yl)acetamide]
400 nM	19.2 nM	566 nM	CCc1c(-c2ccnc(C)c2)[nH]c2ccc(O[C@H]3CCNC3)cc12 [Example 182, (S)-3-ethyl-2-(2-methylpyridin-4-yl)-5-(pyrrolidin-3-yloxy)-1H-indole]
57.9 nM	45.1 nM	2610 nM	COc1ccc(-c2[nH]c3ccc(OCC(=O)N4CCNCC4)cc3c2C(C)C)cc1OC [Example 129, 2-((2-(3,4-dimethoxyphenyl)-3-isopropyl-1H-indol-5-yl)oxy)-1-(piperazin-1-yl)ethan-1-one]
0.7 nM	1 nM	9580 nM	Cc1cc(-c2[nH]c3ccc(OCC4CCN(CCS(C)(=O)=O)CC4)cc3c2C(C)C)cn2ncnc12 [Example 91, 6-(3-isopropyl-5-((1-(2-(methylsulfonyl)ethyl)piperidin-4-yl)methoxy)-1H-indol-2-yl)-8-methyl-[1,2,4]triazolo[1,5-a]pyridine]
8 nM	3.2 nM	447 nM	Cc1cc(-c2[nH]c3ccc(OC4CCN(CC(=O)N(C)C)CC4)cc3c2C(C)C)cc(C)n1 [Example 79, 2-(4-((2-(2,6-dimethylpyridin-4-yl)-3-isopropyl-1H-indol-5-yl)oxy)piperidin-1-yl)-N,N-dimethylacetamide]
315 nM	137 nM	260 nM	Cc1cc(-c2[nH]c3ccc(OCC(=O)N4CC5CNCC5C4)cc3c2C(C)C)ccn1 (stereo not drawn) [Example 145, 1-(hexahydropyrrolo[3,4-c]pyrrol-2(H)-yl)-2-((3-isopropyl-2-(2-methylpyridin-4-yl)-1H-indol-5-yl)oxy)ethan-1-one]
1 nM	6 nM	1290 nM	CCCN1CCC(COc2ccc3[nH]c(-c4cn5cnnc5c(C)c4C)c(C(C)C)c3c2)CC1 [Example 62, 6-(3-isopropyl-5-((1-propylpiperidin-4-yl)methoxy)-1H-indol-2-yl)-7,8-dimethyl-[1,2,4]triazolo[4,3-a]pyridine]
3 nM	4.7 nM	243 nM	Cc1cc(-c2[nH]c3ccc(OCC4CCCNC4)cc3c2C(C)C)cc(C)n1 (stereo not drawn) [Example 94, 2-(2,6-dimethylpyridin-4-yl)-3-isopropyl-5-(piperidin-3-ylmethoxy)-1H-indole]
1.9 nM	3.3 nM	494 nM	Cc1c(-c2[nH]c3ccc(OC4CCN(C)CC4)cc3c2C(C)C)cn2cnnc2c1C [Example 53, 6-(3-isopropyl-5-((1-methylpiperidin-4-yl)oxy)-1H-indol-2-yl)-7,8-dimethyl-[1,2,4]triazolo[4,3-a]pyridine]

From patent US12030878B2 (BRISTOL-MYERS SQUIBB COMPANY, priority 2017, dated 2024)
